Measured values published in patent publication US8143282B2, “Heterocyclic compounds” (S*BIO Pte Ltd., priority 2005, dated 2012).

Legend:
[1] = system: PC3; assay: Cell-based proliferation assay for GI50 (CyQUANT), PC3; settings: Homo sapiens, PC-3; PC3, 96 h treatment; read-out: Cellular or Growth Inhibition Activity, GI50, PC3
Experimental: Human colon cancer cell lines (Colo205, HCT116), Ovarian cancer cell line (A2780), Hepatoma cell line (HEP3B), Prostate cancer cell line (PC3) were obtained from ATCC or ECACC. Colo205 cells were cultivated in RPMI 1640 containing 2 mM L-Glutamine, 5% FBS, 1.0 mM Na Pyruvate, 1 U/ml of penicillin and 1 μg of streptomycin. HCT116 cells were cultivated in McCoy's containing RPMI 1640 containing 2 mM L-Glutamine, 5% FBS, 1 U/ml of penicillin and 1 μg of streptomycin. A2780 cells were cultivated in RPMI 1640 containing 2 mM L-Glutamine, 5% FBS, 1 U/ml of penicillin and 1 μg of streptomycin. HEP3B cells were cultivated in EMEM containing 2 mM L-glutamine, 5% FBS, 1% non essential amino acid, 1 mM Na Pyruvate, 1 U/ml of penicillin and 1 μg of streptomycin. PC3 cells were cultivated in F12K, 2 mM L-glutamine, 5% FBS, 1 U/ml of penicillin and 1 μg of streptomycin. PC3, Colo205, and HCT116 cells were seeded in 96-wells plate at 1000, 5000 and 6000 cells per well respectively. A2780 and HEP3B cells were seeded in 96-wells plate at 4000 cells per well respectively. The plates were incubated at 37° C., 5% CO2, for 24 h. Cells were treated with compounds at various concentrations for 96 h. Cell growth was then monitored using CyQUANT® cell proliferation assay (Invitrogen Pte Ltd). Dose response curves were plotted to determine GI50 values for the compounds using XL-fit (ID Business Solution, Emeryville, Calif.). GI50 is defined as the concentration of compound required for 50% inhibition of cell growth.

[2] = Measurement of microsomal stability; assay type: in vitro ADME; settings: pooled human liver microsomes, pH 7.4; human liver microsome, 5 μM test compound, 1.0 mg/ml microsomal protein
[3] = In vivo pharmacokinetic (PK) studies; settings: mouse, plasma, po; mice, hydrochloric acid salt form (2HCl), 50 mg/kg
Experimental: Compound was dissolved in appropriate solution (saline or DMA and Cremaphor in saline) at 1 mg/ml for intravenous (IV) administration, or in 0.5% methyl cellulose, 0.1% Tween 80 in water at 5 mg/ml for oral administration. Mice were randomized according to body weight, grouped three per time point. Mice were administered single IV dose (10 mg/kg) via tail vein, or single oral dose (50 mg/kg) via gavage. At pre-defined time points (predose, 5 or 10, 30 min, 1, 2, 4, 8, and 24 h), one group of mice was sacrificed by overdose CO2 and blood samples were collected by cardiac puncture. The blood samples were centrifuged immediately for 10 min at 3000 rpm to separate plasma, and plasma was kept frozen at −80° C. until analysis by LC/MS/MS. Before sample analysis, the method was developed for LC/MS/MS assay. The method was validated for signal-response of the calibration standards, auto-sampler stability for ˜15 hours intra-day and inter-day calibration curve using eight calibration standards excluding the blank plasma. QC samples at three different concentrations in triplicates were prepared to determine the accuracy and precision. The extracted QC samples were compared to unextracted samples to determine the extraction efficiency of the analyte. LLOQ was determined by using triplicate samples of 1 ng/mL and 2 ng/mL to obtain accuracy and precision at the low end. Samples were analysed using the validated method. Data was analyzed by the non-compartmental model using WinNolin 4.0 software (Pharsight, Mountain View, Calif., USA). The mean values for the plasma compound concentration-time profiles were used in mouse PK study.
The PK parameter AUC0-last providing the information on the overall exposure of the drug in vivo is one of the key PK/PD parameters that helps in predicting the efficacy of an anti-cancer compound. The higher the AUC value, the better will be the in vivo efficacy of the compound at similar in vitro potency.

Work on `CCCc1nc2cc(/C=C/C(=O)NO)ccc2n1CCNCCC(C)(C)C` [Compound 130, 3-{1-[2-(3,3-Dimethyl-butylamino)-ethyl]-2-propyl-1H-benzoimidazol-5-yl}-N-hydroxy-acrylamide] yielded a GI50 [1] of less than 500 nM, a half-life at 5 μM [2] greater than 30 min and an AUC(0-t) [3] of 1050 ng·h/mL.
